# Assay results as given in patent US12595252B2, “Inhibitors of SARM1” (DISARM THERAPEUTICS, INC., priority 2019, dated 2026).
# Molecular target: T1, SARM1 (Homo sapiens, UniProt Q6SZW1)
# T1 construct: made in house; host or cells: NRK1-HEK293T cells, transiently transfected; clarified lysate used unpurified
# T1 sequence (Q6SZW1 with tags, fused parts or gaps): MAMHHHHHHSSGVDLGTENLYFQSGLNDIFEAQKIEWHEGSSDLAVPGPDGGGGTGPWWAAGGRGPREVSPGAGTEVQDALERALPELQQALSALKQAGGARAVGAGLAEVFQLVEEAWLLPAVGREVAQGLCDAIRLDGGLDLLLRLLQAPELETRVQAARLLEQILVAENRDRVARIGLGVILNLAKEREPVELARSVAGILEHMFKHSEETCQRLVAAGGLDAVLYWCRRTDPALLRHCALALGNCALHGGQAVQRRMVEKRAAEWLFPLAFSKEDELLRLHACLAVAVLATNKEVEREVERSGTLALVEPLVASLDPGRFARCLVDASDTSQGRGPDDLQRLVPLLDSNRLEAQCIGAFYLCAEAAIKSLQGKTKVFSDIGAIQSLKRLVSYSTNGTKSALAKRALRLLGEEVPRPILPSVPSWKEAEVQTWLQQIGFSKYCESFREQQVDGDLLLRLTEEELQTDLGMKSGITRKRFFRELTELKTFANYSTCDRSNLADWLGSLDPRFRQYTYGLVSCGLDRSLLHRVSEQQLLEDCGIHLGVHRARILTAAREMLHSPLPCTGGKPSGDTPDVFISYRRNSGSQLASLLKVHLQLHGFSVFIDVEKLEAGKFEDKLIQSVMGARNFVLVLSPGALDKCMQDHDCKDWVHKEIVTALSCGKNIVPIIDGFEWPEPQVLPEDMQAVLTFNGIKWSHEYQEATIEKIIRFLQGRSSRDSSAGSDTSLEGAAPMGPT
# Test: ARM-SAM-TIR SARM1 IC50 assay (NADase activity, NAD+ cleavage)
# Assay type: biochemical
# Details: ARM-SAM-TIR lysate 5 μg/mL from NRK1-HEK293T cells; 2 h pre-incubation; 5 μM NAD+; 2 hr room temperature; NAD+ and ADPR by RapidFire MS; read-out: SARM1 IC50
# Protocol: This Example describes an assay of ARM-SAM-TIR NADase activity and use of this assay to measure the efficacy of compounds of Formula I to block SARM1 mediated NAD+ cleavage. This assay is optimized in such a way as to characterize the efficacy of the compounds in Formula I to inhibit SARM1 activity and to calculate an IC50 value for each compound. This assay makes use of full length SARM1, which encompasses the ARM, SAM and TIR domains.
# NRK1-HEK293T cells were seeded onto 150 cm^2 plates at 20×10^6 cells per plate. The next day, the cells were transfected with 15 μg ARM-SAM-TIR expression plasmid, SEQ ID NO: 1.
# The cultures were supplemented with 1 mM NR at time of transfection to minimize toxicity from ARM-SAM-TIR overexpression. Forty-eight hours after transfection, cells were harvested, pelleted by centrifugation at 1,000 rpm (Sorvall ST 16R centrifuge, Thermo Fisher), and washed once with cold PBS (0.01 M phosphate buffered saline NaCl 0.138 M; KCl 0.0027 M; pH 7.4). The cells were resuspended in PBS with protease inhibitors (cOmplete™ protease inhibitor cocktail, Roche product #11873580001) and cell lysates were prepared by sonication (Branson Sonifer 450, output=3, 20 episodes of stroke). The lysates were centrifuged (12,000×g for 10 min at 4° C.) to remove cell debris and the supernatants (containing ARM-SAM-TIR protein) were stored at −80° C. for later use in the in vitro ARM-SAM-TIR NADase assay (see below). Protein concentration was determined by the Bicinchoninic (BCA) method and used to normalize lysate concentrations.
# The enzymatic assay was performed in a 384-well polypropylene plate in Dulbecco's PBS buffer in a final assay volume of 20 μL. ARM-SAM-TIR lysate with a final concentration of 5 μg/mL was pre-incubated with the respective compound at 1% DMSO final assay concentration over 2 h at room temperature. The reaction was initiated by addition of 5 μM final assay concentration of NAD+ as substrate. After a 2 hr room temperature incubation, the reaction was terminated with 40 μL of stop solution of 7.5% trichloroacetic acid in acetonitrile. The NAD+ and ADPR concentrations were analyzed by a RapidFire High Throughput Mass Spectrometry System (Agilent Technologies, Santa Clara, Calif.) using an API4000 triple quadrupole mass spectrometer (AB Sciex Framingham, Mass.).
row,SMILES,IC50 [µM]
1,COc1cncc(N(C)S(=O)(=O)c2ccccc2)c1 [Example 208],> 30
2,COc1cncc(NS(=O)(=O)c2ccccc2)c1 [Example 209],> 30
3,NC(=O)c1cncc(NCc2cccnc2)n1 [Example 212],> 30
4,Cn1cc(CNc2cncc(O)n2)cn1 [Example 214],> 30
5,OCc1cncc(NCc2cccnc2)n1 [Example 215],> 30
6,COc1cncc(NCc2ccc(N3CCN(c4ccccc4)CC3)nc2)n1 [Example 216],> 30
7,CNc1ccnc(NC)n1 [Example 217],> 30

# Second part, the compound after the results:
row,IC50 [µM],SMILES
1,> 30,COc1cncc(S(=O)(=O)NCc2ccccc2)c1 [Example 207]
2,> 30,COc1cncc(NCC2CCCOC2)n1 (stereo not drawn) [Example 210]
3,5 to 15,COc1cncc(NCc2cccc(S(N)(=O)=O)c2)n1 [Example 211]
4,> 30,CN(C)C(=O)c1cncc(NCc2cccnc2)n1 [Example 213]
5,> 30,CNc1cncc(Br)n1 [Example 218]
